Test [1] has as its target S1P1 (membranes prepared from S1P1/CHO cells) (Homo sapiens (Human), UniProt P21453). Kind of test: Receptor [35S] GTPγS binding assay (S1P1 GTPγS). It is filed as biochemical. Conditions: phosphate examples; read-out: S1P1 GTPγS. Here is the method:
(§1) Receptor [^35S] GTPγS Binding Assays: (S1P1 GTPγS/S1P3 GTPγS)
Compounds were loaded in a 384 Falcon v-bottom plate (0.5 μl/well in a 11 point, 3-fold dilution). Membranes prepared from S1P1/CHO cells or EDG3-Gal5-bla HEK293T cells (EDG3 equivalent S1P3) were added to the compound plate (40 μl/well, final protein 3 μg/well) with MULTIDROP®. [^35S] GTP (1250 Ci/mmol, Perkin Elmer) was diluted in assay buffer: 20 mM HEPES, pH7.5, 10 mM MgCl2, 150 mM NaCl, 1 mM EGTA (ethylene glycol tetraacetic acid), 1 mM DTT (Dithiothreitol), 10 μM GDP, 0.1% fatty acid free BSA, and 10 μg/ml Saponin to 0.4 nM. 40 μl of the [^35S] GTP solution was added to the compound plate with a final concentration of 0.2 nM. The reaction was kept at room temperature for 45 min. At the end of incubation, all the mixtures in the compound plate were transferred to Millipore 384-well FB filter plates via the VELOCITY11® Vprep liquid handler. The filter plate was washed with water 4 times by using the manifold Embla plate washer and dried at 60° C. for 45 min. MicroScint 20 scintillation fluid (30 μl) was added to each well for counting on the Packard TOPCOUNT®. […]

The target in test [2] is S1P3 (membranes prepared from EDG3-Gal5-bla HEK293T cells) (Homo sapiens (Human), UniProt Q99500). Kind of test: Receptor [35S] GTPγS binding assay (S1P3 GTPγS). It is filed as biochemical. As to conditions: phosphate examples; read-out: S1P3 GTPγS. Here is the method:
as §1
Compounds were loaded in a 384 Falcon v-bottom plate (0.5 μl/well in a 11 point, 3-fold dilution). Membranes prepared from S1P1/CHO cells or EDG3-Gal5-bla HEK293T cells (EDG3 equivalent S1P3) were added to the compound plate (40 μl/well, final protein 3 μg/well) with MULTIDROP®. [^35S] GTP (1250 Ci/mmol, Perkin Elmer) was diluted in assay buffer: 20 mM HEPES, pH7.5, 10 mM MgCl2, 150 mM NaCl, 1 mM EGTA (ethylene glycol tetraacetic acid), 1 mM DTT (Dithiothreitol), 10 μM GDP, 0.1% fatty acid free BSA, and 10 μg/ml Saponin to 0.4 nM. 40 μl of the [^35S] GTP solution was added to the compound plate with a final concentration of 0.2 nM. The reaction was kept at room temperature for 45 min. At the end of incubation, all the mixtures in the compound plate were transferred to Millipore 384-well FB filter plates via the VELOCITY11® Vprep liquid handler. The filter plate was washed with water 4 times by using the manifold Embla plate washer and dried at 60° C. for 45 min. MicroScint 20 scintillation fluid (30 μl) was added to each well for counting on the Packard TOPCOUNT®.
A smaller value for GTPγS S1P1 EC50 value indicated greater activity for the compound in the GTPγS S1P1 binding assay. A larger value for the GTPγS S1P3 EC50 value indicated less activity in the GTPγS S1P3 binding assay. […] Thus the compounds of the present invention may be used in treating, preventing, or curing various S1P1 receptor-related conditions while reducing or minimizing the side effects due to S1P3 activity. The selectivity of the compounds of the present invention indicate their potential use in treating, preventing, or curing autoimmune and inflammatory diseases such as multiple sclerosis, rheumatoid arthritis, inflammatory bowel disease, lupus, psoriasis, or vascular diseases, while reducing or minimizing possible side effects due to S1P3 activity. Other potential uses of the compounds of the present invention include minimizing or reducing rejection of transplanted organs, while reducing or minimizing side effects due to S1P3 activity.
Background: GTPγS is a poorly hydrolysed GTP analogue; its binding reports G protein activation.

For another test, the target named is human S1P1 (Homo sapiens (Human), UniProt P21453). Kind of test: S1P1 binding assay (33P-S1P radioligand competition, CHO cell membranes). Conditions: phosphate examples; read-out: S1P1 Binding. How it is done: Membranes were prepared from CHO cells expressing human S1P1. Cells pellets (1×10^9 cells/pellet) were suspended in buffer containing 20 mM HEPES (4-(2-hydroxyethyl)-1-piperazineethanesulfonic acid), pH 7.5, 50 mM NaCl, 2 mM EDTA (Ethylenediaminetetraacetic acid) and Protease Inhibitor cocktail (Roche), and disrupted on ice using the Polytron homogenizer. The homogenate was centrifuged at 20,000 rpm (48,000 g) and the supernatant was discarded. The membrane pellets were resuspended in buffer containing 50 mM HEPES, pH 7.5, 100 mM NaCl, 1 mM MgCl2, 2 mM EDTA and stored in aliquots at −80° C. after protein concentration determination.
For orientation: Displacement assays read how much labelled ligand stays bound in the presence of the test substance.

For the next test, the target named is hS1P1/CHO cells (Homo sapiens (Human), UniProt P21453). Kind of test: hS1P1 ERK phosphorylation (S1P1 pERK). It is filed as cell-based. Conditions: phosphate examples. How it is done:
hS1P1 ERK Phosphorylation (S1P1 pERK)
hS1P1/CHO cells were plated into BD Amine 384-well plates the day before the assay. On the day of the assay, growth medium was removed and replaced with serum-free medium (Ham's F-12 Invitrogen) and incubated for 2 hours. Test compounds pre-diluted in HBSS (Gibco)/20 mM HEPES (Gibco) were transferred to the cell plates and incubated for 7 minutes at 37° C. Cells were lysed in lysis buffer (Perkin Elmer) and phospho-ERK was measured using the SureFire pERK kit (Perkin Elmer) as described by the manufacturer. Data was plotted as percentage activation of the test compound relative to the efficacy of 10 μM S1P.

human S1P1, sequence (P21453 whole entry): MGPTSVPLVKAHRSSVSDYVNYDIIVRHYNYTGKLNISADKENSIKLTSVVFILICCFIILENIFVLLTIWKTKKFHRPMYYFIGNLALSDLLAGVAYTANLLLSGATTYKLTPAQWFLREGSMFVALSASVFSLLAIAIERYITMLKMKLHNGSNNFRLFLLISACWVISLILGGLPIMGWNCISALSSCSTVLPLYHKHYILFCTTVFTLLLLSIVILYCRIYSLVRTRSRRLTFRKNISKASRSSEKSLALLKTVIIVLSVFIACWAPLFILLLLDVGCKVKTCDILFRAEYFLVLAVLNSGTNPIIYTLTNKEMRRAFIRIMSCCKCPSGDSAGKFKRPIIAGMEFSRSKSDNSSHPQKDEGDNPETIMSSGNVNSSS
S1P1 (membranes prepared from S1P1/CHO cells), sequence (P21453 whole entry): as above
hS1P1/CHO cells, sequence (P21453 whole entry): as above
S1P3 (membranes prepared from EDG3-Gal5-bla HEK293T cells), sequence (Q99500 whole entry): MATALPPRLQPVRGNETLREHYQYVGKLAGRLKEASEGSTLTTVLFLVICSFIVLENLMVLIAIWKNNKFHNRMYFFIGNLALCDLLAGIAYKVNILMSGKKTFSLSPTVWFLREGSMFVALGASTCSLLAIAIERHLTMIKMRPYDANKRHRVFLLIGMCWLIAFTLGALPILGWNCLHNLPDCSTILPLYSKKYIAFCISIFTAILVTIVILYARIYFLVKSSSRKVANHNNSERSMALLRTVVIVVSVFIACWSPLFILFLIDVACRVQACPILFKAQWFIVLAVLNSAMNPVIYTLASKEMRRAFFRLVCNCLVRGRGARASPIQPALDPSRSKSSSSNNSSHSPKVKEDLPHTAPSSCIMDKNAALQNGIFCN

Take `N[C@@]1(COP(=O)(O)O)CC[C@@H](c2ccc3c(c2)CC[C@H](CCc2ccc4ccccc4n2)C3)C1` (single isomer, unassigned) [compound 604]: the EC50 was 100 to 1000 nM in test [1], over 625 nM in test [2] and 10 to 100 nM at hS1P1/CHO cells. For the same compound, at human S1P1, the IC50 fell in the range of 100 to 1000 nM.

As for `N[C@@]1(COP(=O)(O)O)CC[C@@H](c2ccc3c(c2)CC[C@H](CCc2cccnc2)C3)C1` (single isomer, unassigned) [compound 606], the EC50 in test [1] was 10 to 100 nM; in test [2], over 625 nM; on hS1P1/CHO cells, under 10 nM. In addition, on human S1P1, the IC50 was in the range of 10 to 100 nM.

`COc1cccc(F)c1CC[C@H]1CCc2cc([C@@H]3CC[C@@](N)(COP(=O)(O)O)C3)ccc2C1` (single isomer, unassigned) [compound 607]: the EC50 is 100 to 1000 nM in test [1], over 625 nM in test [2] and 10 to 100 nM on hS1P1/CHO cells. Also, the IC50 at human S1P1 is 100 to 1000 nM.

Regarding `COc1cc(CC[C@H]2CCc3cc([C@@H]4CC[C@@](N)(COP(=O)(O)O)C4)ccc3C2)ccc1F` (single isomer, unassigned) [compound 608], the EC50 in test [1] was under 10 nM; in test [2], over 625 nM; on hS1P1/CHO cells it was under 10 nM. For the same compound, the IC50 at human S1P1 was under 10 nM.

As for `COc1ccc(F)c(CC[C@H]2CCc3cc([C@@H]4CC[C@@](N)(COP(=O)(O)O)C4)ccc3C2)c1` (single isomer, unassigned) [compound 609], the EC50 in test [1] is 10 to 100 nM; in test [2], over 625 nM; at hS1P1/CHO cells, under 10 nM. For the same compound, the IC50 at human S1P1 was 10 to 100 nM.

Turning to `COC(C)CCCCC1CCc2cc([C@H]3CC[C@](N)(COP(=O)(O)O)C3)ccc2C1` (single isomer, unassigned) [compound 611], the values for the EC50 (in test [1]; in test [2]; on hS1P1/CHO cells) were under 10 nM, over 625 nM and under 10 nM, respectively. At human S1P1, the IC50 was under 10 nM.

With `CCCCCOC[C@@H]1COc2cc([C@H]3CC[C@](N)(COP(=O)(O)O)C3)ccc2O1` [Example 412, ((1R,3S)-1-amino-3-((R)-2-((pentyloxy)methyl)-2,3-dihydrobenzo[b][1,4]dioxin-6-yl)cyclopentyl)methyl dihydrogen phosphate], the EC50 in test [1] is under 10 nM; in test [2], over 625 nM; at hS1P1/CHO cells, under 10 nM. For the same compound, on human S1P1, the IC50 was under 10 nM.

On to `N[C@]1(COP(=O)(O)O)CC[C@H](c2ccc3c(c2)CC[C@H](C[S+]([O-])c2ccccc2)C3)C1` (stereo partly drawn) [Example 667, ((1R,3S)-1-amino-3-((6S)-6-((phenylsulfinyl)methyl)-5,6,7,8-tetrahydronaphthalen-2-yl)cyclopentyl)methyl dihydrogen phosphate], for which the EC50 is 100 to 1000 nM in test [1], over 625 nM in test [2] and 100 to 1000 nM at hS1P1/CHO cells. On human S1P1, the IC50 was in the range of 100 to 1000 nM.

In the case of `CCCCOC[C@@H]1COc2cc([C@H]3CC[C@](N)(COP(=O)(O)O)C3)ccc2O1` [compound 414], the values for the EC50 (in test [1]; in test [2]; at hS1P1/CHO cells) were 10 to 100 nM, over 625 nM and 1000 to 10000 nM, respectively. For the same compound, the IC50 at human S1P1 was under 10 nM.

With `CCCCOC[C@@H]1COc2cc([C@@H]3CC[C@](N)(COP(=O)(O)O)C3)ccc2O1` [compound 415], the values for the EC50 (in test [1]; in test [2]; at hS1P1/CHO cells) were 10 to 100 nM, over 625 nM and 10 to 100 nM, respectively. Besides, on human S1P1, the IC50 is 10 to 100 nM.

Regarding `CCCCCCN1CCc2cc([C@@H]3CC[C@](N)(COP(=O)(O)O)C3)ccc2C1=O` [compound 417], the EC50 was 100 to 1000 nM in test [1], over 625 nM in test [2] and under 10 nM at hS1P1/CHO cells. For the same compound, the IC50 on human S1P1 lay in the range of 10 to 100 nM.

In the case of `CCCCCCC1CCc2cc([C@@H]3CC[C@](N)(COP(=O)(O)O)C3)ccc2O1` (stereo partly shown) [compound 420], the figures for the EC50 (in test [1]; in test [2]; at hS1P1/CHO cells) were 10 to 100 nM, over 625 nM and 1000 to 10000 nM, respectively. In addition, the IC50 on human S1P1 fell in the range of 10 to 100 nM.

Turning to `CCCCCCC1Cc2ccc([C@H]3CC[C@](N)(COP(=O)(O)O)C3)cc2CO1` (stereo partly shown) [compound 421], the EC50 in test [1] is under 10 nM; in test [2], over 625 nM; on hS1P1/CHO cells it was under 10 nM. The IC50 at human S1P1 was under 10 nM.

`CCCCCC[C@@H]1COc2cc([C@@H]3CC[C@](N)(COP(=O)(O)O)C3)ccc2C1` [compound 423]: the EC50 was 100 to 1000 nM in test [1], over 625 nM in test [2] and 10 to 100 nM on hS1P1/CHO cells. Further, the IC50 on human S1P1 lay in the range of 100 to 1000 nM.

With `CCCCCC[C@H]1COc2cc([C@H]3CC[C@](N)(COP(=O)(O)O)C3)ccc2C1` [compound 424], the EC50 is 10 to 100 nM in test [1], over 625 nM in test [2] and under 10 nM at hS1P1/CHO cells. Besides, on human S1P1, the IC50 fell in the range of 10 to 100 nM.

With `CCCCCC[C@H]1COc2cc([C@@H]3CC[C@](N)(COP(=O)(O)O)C3)ccc2C1` [compound 425], the EC50 was under 10 nM in test [1], over 625 nM in test [2] and under 10 nM on hS1P1/CHO cells. Also, the IC50 at human S1P1 was under 10 nM.

Turning to `CCCCCC[C@H]1Cc2ccc([C@H]3CC[C@](N)(COP(=O)(O)O)C3)cc2CO1` [compound 426], the EC50 in test [1] was under 10 nM; in test [2], over 625 nM; at hS1P1/CHO cells, under 10 nM. Also, the IC50 on human S1P1 lay in the range of 10 to 100 nM.

With `CCCCCC[C@@H]1Cc2ccc([C@H]3CC[C@](N)(COP(=O)(O)O)C3)cc2CO1` [compound 427], the EC50 is under 10 nM in test [1], over 625 nM in test [2] and under 10 nM at hS1P1/CHO cells. Also, on human S1P1, the IC50 is 10 to 100 nM.

In the case of `CCCCCCC[C@H]1Cc2ccc([C@H]3CC[C@](N)(COP(=O)(O)O)C3)cc2CO1` [compound 428], the EC50 is under 10 nM in test [1], over 625 nM in test [2] and 10 to 100 nM at hS1P1/CHO cells. On human S1P1, the IC50 is under 10 nM.

As to `CCCCCO[C@@H]1CCc2cc([C@H]3CC[C@](N)(COP(=O)(O)O)C3)ccc2C1` [compound 430], the EC50 in test [1] is 10 to 100 nM; in test [2], over 625 nM; at hS1P1/CHO cells, under 10 nM. Besides, on human S1P1, the IC50 is 10 to 100 nM.

In the case of `CCCCCO[C@H]1CCc2cc([C@H]3CC[C@](N)(COP(=O)(O)O)C3)ccc2C1` [compound 431], the EC50 in test [1] is 100 to 1000 nM; in test [2], over 625 nM; on hS1P1/CHO cells it was under 10 nM. Also, the IC50 at human S1P1 is 10 to 100 nM.

For `CCCCCCCOC1CCc2cc([C@H]3CC[C@](N)(COP(=O)(O)O)C3)ccc2C1` (stereo partly shown) [compound 432], the EC50 in test [1] is under 10 nM; in test [2], over 100 nM; on hS1P1/CHO cells, 10 to 100 nM. Besides, the IC50 at human S1P1 is under 10 nM.

For the origin of these results see patent US9522888B2, “Substituted bicyclic compounds” (BRISTOL-MYERS SQUIBB COMPANY, priority 2014, dated 2016).
